Where only a bound is given, the exact number is not on record here.

As a reminder, the EC50 is the concentration at which the effect is half-maximal.

For this assay, the system named is ATF4 luciferase reporter in HEK293T cells. Description: ATF4-Luc assay (ATF4 luciferase reporter, tunicamycin-treated HEK293T cells). As to conditions: Homo sapiens, HEK-293T; HEK293T cells carrying the ATF4 luciferase reporter, 1 μg/mL tunicamycin, 7 hours. It counts as cell-based, human. On the procedure: In order to test exemplary compounds of the invention in a cellular context, a stable VWMD cell line was first constructed. The ATF4 reporter was prepared by fusing the human full-length ATF4 5′-UTR (NCBI Accession No. BC022088.2) in front of the firefly luciferase (FLuc) coding sequence lacking the initiator methionine as described in Sidrauski et al (eLife 2013). The construct was used to produce recombinant retroviruses using standard methods and the resulting viral supernatant was used to transduce HEK293T cells, which were then subsequently selected with puromycin to generate a stable cell line.
HEK293T cells carrying the ATF4 luciferase reporter were plated on polylysine coated 384-well plates (Greiner Bio-one) at 30,000 cells per well. Cells were treated the next day with 1 μg/mL tunicamycin and 200 nM of a compound of Formula (I) for 7 hours. Luminescence was measured using One Glo (Promega) as specified by the manufacturer. Cells were maintained in DMEM with L-glutamine supplemented with 10% heat-inactivated FBS (Gibco) and Antibiotic-Antimycotic solution (Gibco).
Table 2 below summarizes the EC50 data obtained using the ATF4-Luc assay for exemplary compounds of the invention.
Background: In a reporter assay the amount or activity of a reporter protein is the signal.
For `O=C(COc1ccc(C(F)(F)F)nc1)NC12CCC(NC(=O)COc3ccc(Cl)c(F)c3)(CC1)CC2` [Compound 101, 2-(4-chloro-3-fluorophenoxy)-N-[4-(2-{[6-(trifluoromethyl)pyridin-3-yl]oxy}acetamido)bicyclo[2.2.2]octan-1-yl]acetamide], the EC50 fell in the range of 0.01 to 0.05 µM. Under `O=C(CCc1ccc(Cl)cc1)NC12CC(NC(=O)COc3ccc(Cl)c(F)c3)(C1)C2` [Compound 102, N-{3-[2-(4-chloro-3-fluorophenoxy)acetamido]bicyclo[1.1.1]pentan-1-yl}-3-(4-chlorophenyl)propanamide] stands 0.05 to 0.25 µM. On to `O=C(COc1ccc(Cl)cc1)NC12C3C4C1C1C2C3C41NC(=O)COc1ccc(Cl)cc1` (stereo not shown) [Compound 103, N,N′-(pentacyclo[4.2.0.0^2,50^3,80^4,7]octane-1,4-diyl)bis[2-(4-chlorophenoxy)-acetamide]], for which the EC50 lay within 0.01 to 0.05 µM. Under `O=C(CCn1ncc(Cl)cc1=O)NC12CC(NC(=O)COc3ccc(Cl)c(F)c3)(C1)C2` [Compound 104, N-{3-[2-(4-chloro-3-fluorophenoxy)acetamido]bicyclo[1.1.1]pentan-1-yl}-3-(4-chloro-6-oxopyridazin-1(6H)-yl)propanamide] stands 0.25 to 0.5 µM. With `O=C(COc1ccc(Cl)c(Cl)c1)NC12CC(NC(=O)COc3cnc(C(F)(F)F)cn3)(C1)C2` [Compound 105, 2-(3,4-dichlorophenoxy)-N-[3-(2-{[5-(trifluoromethyl)pyrazin-2-yl]oxy}acetamido)bicyclo[1.1.1]pentan-1-yl]acetamide], the EC50 was 0.01 to 0.05 µM. For the compound `O=C(COc1ccc(Cl)c(Cl)c1)NC12CC(NC(=O)COc3ccc(Cl)c(Cl)c3)(C1)C2` [Compound 106, N,N′-(bicyclo[1.1.1]pentane-1,3-diyl)bis[2-(3,4-dichlorophenoxy)acetamide]], the 50% effective concentration (EC50) was below 0.01 µM. In the case of `O=C(COc1ccc(Cl)c(F)c1)NC12CC(NC(=O)COc3cnc(C(F)(F)F)cn3)(C1)C2` [Compound 107, 2-(4-chloro-3-fluorophenoxy)-N-[3-(2-{[5-(trifluoromethyl)pyrazin-2-yl]oxy}acetamido)bicyclo[1.1.1]pentan-1-yl]acetamide] it was 0.05 to 0.25 µM.

Turning to `O=C(COc1ccc(Cl)c(F)c1)NC12CC(NC(=O)COc3ccc4cn[nH]c4c3)(C1)C2` [Compound 108, 2-(4-chloro-3-fluorophenoxy)-N-(3-{2-[(1H-indazol-6-yl)oxy]acetamido}-bicyclo[1.1.1]pentan-1-yl)acetamide], the EC50 was 0.01 to 0.05 µM.

In the case of `O=C(COc1ccc2cn[nH]c2c1)NC12CC(NC(=O)COc3ccc4cn[nH]c4c3)(C1)C2` [Compound 109, N,N′-(bicyclo[1.1.1]pentane-1,3-diyl)bis{2-[(1H-indazol-6-yl)oxy]acetamide}], the EC50 was in the range of 0.5 to 2 µM.

For the compound `Cc1noc2cc(OCC(=O)NC34CC(NC(=O)COc5ccc(Cl)c(F)c5)(C3)C4)ccc12` [Compound 110, 2-(4-chloro-3-fluorophenoxy)-N-(3-{2-[(3-methyl-1,2-benzoxazol-6-yl)oxy]acetamido}bicyclo[1.1.1]pentan-1-yl)acetamide], the EC50 was in the range of 0.5 to 2 µM.

Turning to `O=C(COc1ccc(Cl)c(F)c1)NC12CC(NC(=O)COc3cc(F)c4cn[nH]c4c3)(C1)C2` [Compound 111, 2-(4-chloro-3-fluorophenoxy)-N-(3-{2-[(4-fluoro-1H-indazol-6-yl)oxy]acetamido}-bicyclo[1.1.1]pentan-1-yl)acetamide], the half-maximal effective concentration (EC50) was below 0.01 µM. For the compound `O=C(COc1ccc(Cl)cc1)NC12CC(NCCOc3ccc(Cl)cc3)(C1)C2` [Compound 113, 2-(4-chlorophenoxy)-N-(3-{[2-(4-chlorophenoxy)ethyl]amino}bicyclo-[1.1.1]pentan-1-yl)acetamide], the EC50 fell in the range of 0.05 to 0.25 µM. `Cc1cccc(OCC(=O)NC23CC(NC(=O)COc4ccc(Cl)cc4)(C2)C3)c1` [Compound 114, 2-(4-chlorophenoxy)-N-{3-[2-(3-methylphenoxy)acetamido]bicyclo[1.1.1]-pentan-1-yl}acetamide]: the EC50 is 0.01 to 0.05 µM.

These data come from patent US20240166652A1, “MODULATORS OF THE INTEGRATED STRESS PATHWAY” (Calico Life Sciences LLC, priority 2017, published 2024).
